In BindingDB's records for doi:10.1124/jpet.105.089839 (F. Hoffmann-La Roche, 2005):
Where “and” joins values, the source holds several entries; their conditions need not be identical. Equal entries are not always repeated.

How the values were obtained:
[1] = target: Metabotropic glutamate receptor 5 (Homo sapiens, UniProt P41594)
[2] = target: Metabotropic glutamate receptor 5 (Rattus norvegicus, UniProt P31424)
Sequence of Metabotropic glutamate receptor 5 (Rattus norvegicus, UniProt P31424) (P31424 whole entry): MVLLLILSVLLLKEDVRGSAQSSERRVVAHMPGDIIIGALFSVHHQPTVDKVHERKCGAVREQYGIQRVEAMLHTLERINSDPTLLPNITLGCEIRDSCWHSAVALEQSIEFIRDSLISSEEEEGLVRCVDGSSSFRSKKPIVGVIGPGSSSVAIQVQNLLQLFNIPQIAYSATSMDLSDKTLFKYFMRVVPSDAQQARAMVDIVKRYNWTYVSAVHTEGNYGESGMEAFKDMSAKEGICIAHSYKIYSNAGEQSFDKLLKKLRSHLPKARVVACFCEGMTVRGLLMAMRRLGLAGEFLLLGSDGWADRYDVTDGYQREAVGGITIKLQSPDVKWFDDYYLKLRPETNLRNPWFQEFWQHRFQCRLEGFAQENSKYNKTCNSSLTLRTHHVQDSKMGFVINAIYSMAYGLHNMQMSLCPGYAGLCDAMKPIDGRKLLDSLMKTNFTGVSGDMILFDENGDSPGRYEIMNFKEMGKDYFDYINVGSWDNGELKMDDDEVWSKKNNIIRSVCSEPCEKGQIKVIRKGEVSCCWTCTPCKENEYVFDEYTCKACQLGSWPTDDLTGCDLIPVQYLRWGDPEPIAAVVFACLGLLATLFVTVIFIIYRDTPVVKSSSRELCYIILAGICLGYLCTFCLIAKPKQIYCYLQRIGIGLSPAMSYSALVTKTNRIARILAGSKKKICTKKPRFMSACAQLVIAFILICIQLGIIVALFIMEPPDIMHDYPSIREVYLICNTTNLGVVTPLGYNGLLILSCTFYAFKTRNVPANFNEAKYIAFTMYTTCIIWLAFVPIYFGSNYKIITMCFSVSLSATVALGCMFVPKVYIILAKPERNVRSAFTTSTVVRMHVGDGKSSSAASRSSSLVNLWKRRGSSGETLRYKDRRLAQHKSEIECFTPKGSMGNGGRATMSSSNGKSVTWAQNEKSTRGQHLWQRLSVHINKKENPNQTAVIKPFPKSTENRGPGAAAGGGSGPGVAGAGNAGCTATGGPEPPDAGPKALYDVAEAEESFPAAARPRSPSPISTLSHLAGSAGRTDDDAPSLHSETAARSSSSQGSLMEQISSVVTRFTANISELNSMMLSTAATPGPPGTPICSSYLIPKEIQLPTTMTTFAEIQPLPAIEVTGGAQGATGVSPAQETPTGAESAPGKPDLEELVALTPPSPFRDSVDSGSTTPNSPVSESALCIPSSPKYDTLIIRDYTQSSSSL

Sequence of Metabotropic glutamate receptor 5 (Homo sapiens, UniProt P41594) (P41594 whole entry): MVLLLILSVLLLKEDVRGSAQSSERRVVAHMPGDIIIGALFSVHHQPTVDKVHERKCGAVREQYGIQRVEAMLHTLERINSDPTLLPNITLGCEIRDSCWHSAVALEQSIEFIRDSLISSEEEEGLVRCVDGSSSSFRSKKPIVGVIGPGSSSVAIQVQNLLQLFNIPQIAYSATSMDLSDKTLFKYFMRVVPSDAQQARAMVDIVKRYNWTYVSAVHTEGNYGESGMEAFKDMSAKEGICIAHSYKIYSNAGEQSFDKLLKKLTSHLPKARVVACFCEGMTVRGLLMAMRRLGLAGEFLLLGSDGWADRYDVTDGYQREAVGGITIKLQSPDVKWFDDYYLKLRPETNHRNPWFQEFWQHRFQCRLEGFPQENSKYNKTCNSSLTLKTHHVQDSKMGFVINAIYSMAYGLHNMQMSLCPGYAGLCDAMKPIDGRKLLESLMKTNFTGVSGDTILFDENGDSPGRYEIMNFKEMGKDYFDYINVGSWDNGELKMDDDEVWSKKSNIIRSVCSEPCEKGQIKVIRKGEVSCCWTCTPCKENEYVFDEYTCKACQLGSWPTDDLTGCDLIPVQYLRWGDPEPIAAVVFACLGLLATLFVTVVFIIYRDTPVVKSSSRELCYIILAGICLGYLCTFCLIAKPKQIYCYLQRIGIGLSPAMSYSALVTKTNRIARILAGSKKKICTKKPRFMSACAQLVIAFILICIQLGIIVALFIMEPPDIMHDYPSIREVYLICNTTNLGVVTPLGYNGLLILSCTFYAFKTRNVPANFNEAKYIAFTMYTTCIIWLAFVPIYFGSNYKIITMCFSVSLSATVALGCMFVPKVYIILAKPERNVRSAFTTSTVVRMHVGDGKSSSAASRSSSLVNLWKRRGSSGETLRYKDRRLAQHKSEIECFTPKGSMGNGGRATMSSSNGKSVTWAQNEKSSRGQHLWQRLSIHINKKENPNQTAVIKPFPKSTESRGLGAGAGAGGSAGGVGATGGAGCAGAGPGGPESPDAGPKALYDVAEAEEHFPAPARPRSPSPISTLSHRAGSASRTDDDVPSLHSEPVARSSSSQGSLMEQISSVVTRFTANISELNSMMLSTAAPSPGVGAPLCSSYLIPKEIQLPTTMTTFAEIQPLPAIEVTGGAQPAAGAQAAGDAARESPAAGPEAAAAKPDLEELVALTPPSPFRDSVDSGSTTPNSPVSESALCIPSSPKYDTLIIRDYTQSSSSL

Row | Ki [1] | Ki [2] | Structure (SMILES)
1 | 357 nM and 328 nM and 1100 nM | 486 nM and 346 nM | Cc1ccc(O)c(N=Nc2ccccc2)n1 [CAS_5218788]
2 | 334 nM and 219 nM and 800 nM | 423 nM and 243 nM | Cc1cccc(C=Cc2ccccc2)n1 [CAS_5311432]
3 | 40.8 nM and 53 nM and 58 nM | 56.3 nM and 50.8 nM | Cn1cc(O)nc1NC(=O)Nc1cccc(Cl)c1 [NSC_216215]

Row | Structure (SMILES) | Ki [1] | Ki [2]
4 | N[C@@H](Cn1oc(=O)[nH]c1=O)C(=O)O [NSC_40539] | > 10000 nM | > 10000 nM
